Common to all, as to conditions: Compound Concentration 10.0 uM, Hit No
Assay [1] has as its target T1, Endonuclease 8-like 2 (Homo sapiens) (UniProt Q969S2).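 Also: fluorescence at 594 nm reports NEIL2 cutting and release of a quenched double-stranded DNA oligo substrate, reduced signal read as inhibition.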
T1 sequence (whole entry): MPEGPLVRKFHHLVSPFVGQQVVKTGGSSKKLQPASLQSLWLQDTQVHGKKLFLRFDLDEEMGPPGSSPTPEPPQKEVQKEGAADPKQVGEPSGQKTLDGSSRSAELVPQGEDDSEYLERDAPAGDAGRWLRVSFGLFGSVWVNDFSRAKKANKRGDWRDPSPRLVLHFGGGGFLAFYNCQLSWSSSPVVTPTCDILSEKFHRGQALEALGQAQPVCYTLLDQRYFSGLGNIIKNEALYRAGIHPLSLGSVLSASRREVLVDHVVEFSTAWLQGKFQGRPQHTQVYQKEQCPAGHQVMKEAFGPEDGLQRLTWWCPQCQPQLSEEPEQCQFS
Description: Inhibition of NEIL2 by quantifying inhibition of NEIL2-mediated cleavage and dissociation of quenched duplex DNA oligonucleotides, measured as fluorescence at 594 nm.

Assay [2] concerns the target Endonuclease 8-like 1 (Homo sapiens) (UniProt Q96FI4).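 Also: fluorescence at 594 nm from quenched duplex DNA oligonucleotides released by NEIL1 cleavage and strand separation, reported as reduction of this enzyme activity.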
Description: Inhibition of NEIL1 by quantifying inhibition of NEIL1-mediated cleavage and dissociation of quenched duplex DNA oligonucleotides, measured as fluorescence at 594 nm.
For assay [3], the target named is DNA-3-methyladenine glycosylase (Homo sapiens) (UniProt P29372).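 Also: enzyme assay where MPG cuts a quenched duplex DNA oligonucleotide probe, paired with APE1 for strand incision and turnover, read as fluorescence at 594 nm.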
DNA-3-methyladenine glycosylase (Homo sapiens), sequence (P29372 whole entry): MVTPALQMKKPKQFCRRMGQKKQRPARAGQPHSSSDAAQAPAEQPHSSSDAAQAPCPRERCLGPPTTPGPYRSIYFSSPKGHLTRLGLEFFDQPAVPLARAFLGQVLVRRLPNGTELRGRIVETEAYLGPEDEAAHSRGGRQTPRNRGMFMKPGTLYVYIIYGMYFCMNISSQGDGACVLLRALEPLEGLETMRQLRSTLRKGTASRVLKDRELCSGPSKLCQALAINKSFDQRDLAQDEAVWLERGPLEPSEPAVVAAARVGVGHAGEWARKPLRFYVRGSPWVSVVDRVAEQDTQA
Description: Inhibition of MPG by quantifying inhibition of MPG-mediated cleavage and dissociation of quenched duplex DNA oligonucleotides, measured as fluorescence at 594 nm. To generate a functional strand incision and increase turn-over this assay is coupled to APE1.
Assay [4] concerns the target G/T mismatch-specific thymine DNA glycosylase (Homo sapiens) (UniProt Q13569).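 Also: human TDG cleavage of quenched duplex DNA oligonucleotides coupled to APE1, strand release read as fluorescence at 594 nm, inhibition of TDG activity.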
Description: Inhibition of TDG by quantifying inhibition of TDG-mediated cleavage and dissociation of quenched duplex DNA oligonucleotides, measured as fluorescence at 594 nm. To generate a functional strand incision and increase turn-over this assay is coupled to APE1.
The target of assay [5] is T2, Single-strand selective monofunctional uracil DNA glycosylase (Homo sapiens) (UniProt Q53HV7).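 Also: enzymatic SMUG1 assay coupled with APE1, reading fluorescence at 594 nm released when a quenched double-stranded DNA oligonucleotide substrate is cleaved and separated.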
T2 sequence (whole entry): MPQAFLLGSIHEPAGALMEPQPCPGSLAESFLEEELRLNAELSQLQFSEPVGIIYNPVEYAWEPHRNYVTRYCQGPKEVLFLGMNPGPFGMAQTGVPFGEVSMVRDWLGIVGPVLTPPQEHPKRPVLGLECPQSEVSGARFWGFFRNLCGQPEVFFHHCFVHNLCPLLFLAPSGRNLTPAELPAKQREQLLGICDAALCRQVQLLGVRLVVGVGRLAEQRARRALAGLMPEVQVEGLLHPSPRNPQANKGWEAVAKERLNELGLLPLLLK
Description: Inhibition of SMUG1 by quantifying inhibition of SMUG1-mediated cleavage and dissociation of quenched duplex DNA oligonucleotides, measured as fluorescence at 594 nm. To generate a functional strand incision and increase turn-over this assay is coupled to APE1.

Assay [6] has as its target N-glycosylase/DNA lyase (Homo sapiens) (UniProt O15527).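 Also: OGG1 cleavage of a quenched duplex DNA oligonucleotide, coupled to APE1 for strand incision, read as fluorescence at 594 nm.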
Description: Inhibition of OGG1 by quantifying inhibition of OGG1-mediated cleavage and dissociation of quenched duplex DNA oligonucleotides, measured as fluorescence at 594 nm. To generate a functional strand incision and increase turn-over this assay is coupled to APE1.
The target in assay [7] is Uracil-DNA glycosylase (Homo sapiens) (UniProt P13051).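 Also: UNG excision on a quenched double-stranded DNA oligo probe, with APE1 added for strand incision and turnover, read as fluorescence at 594 nm as strands separate.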
Uracil-DNA glycosylase (Homo sapiens), sequence (P13051 whole entry): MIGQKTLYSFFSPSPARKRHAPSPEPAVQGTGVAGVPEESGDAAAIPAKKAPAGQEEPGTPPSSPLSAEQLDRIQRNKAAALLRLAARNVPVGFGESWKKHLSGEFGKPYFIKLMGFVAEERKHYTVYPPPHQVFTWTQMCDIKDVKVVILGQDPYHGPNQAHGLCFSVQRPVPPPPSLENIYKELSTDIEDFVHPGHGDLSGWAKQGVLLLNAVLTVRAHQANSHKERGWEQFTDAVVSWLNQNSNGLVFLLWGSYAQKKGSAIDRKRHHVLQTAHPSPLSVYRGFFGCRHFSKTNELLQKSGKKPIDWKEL
Description: Inhibition of UNG by quantifying inhibition of UNG-mediated cleavage and dissociation of quenched duplex DNA oligonucleotides, measured as fluorescence at 594 nm. To generate a functional strand incision and increase turn-over this assay is coupled to APE1.
Assay [8] deals with T3, Endonuclease III-like protein 1 (Homo sapiens) (UniProt P78549).
T3 sequence (whole entry): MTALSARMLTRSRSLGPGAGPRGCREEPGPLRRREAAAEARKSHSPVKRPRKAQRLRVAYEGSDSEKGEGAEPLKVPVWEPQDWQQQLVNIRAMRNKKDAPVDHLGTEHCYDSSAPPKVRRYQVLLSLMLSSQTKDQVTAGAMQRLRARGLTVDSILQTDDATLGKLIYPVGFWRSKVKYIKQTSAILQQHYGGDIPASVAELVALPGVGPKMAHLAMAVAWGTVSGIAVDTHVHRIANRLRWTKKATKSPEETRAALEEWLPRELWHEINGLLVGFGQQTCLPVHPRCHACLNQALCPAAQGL
Description: Inhibition of NTHL1 by quantifying inhibition of NTHL1-mediated cleavage and dissociation of quenched duplex DNA oligonucleotides, measured as fluorescence at 594 nm.

Assay [9] concerns the target T4, Adenine DNA glycosylase (Homo sapiens) (UniProt Q9UIF7).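 Also: human MUTYH activity read as 594 nm fluorescence from cleavage and release of a quenched DNA duplex, coupled with APE1 for strand incision, lower signal meaning inhibition.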
T4 sequence (whole entry): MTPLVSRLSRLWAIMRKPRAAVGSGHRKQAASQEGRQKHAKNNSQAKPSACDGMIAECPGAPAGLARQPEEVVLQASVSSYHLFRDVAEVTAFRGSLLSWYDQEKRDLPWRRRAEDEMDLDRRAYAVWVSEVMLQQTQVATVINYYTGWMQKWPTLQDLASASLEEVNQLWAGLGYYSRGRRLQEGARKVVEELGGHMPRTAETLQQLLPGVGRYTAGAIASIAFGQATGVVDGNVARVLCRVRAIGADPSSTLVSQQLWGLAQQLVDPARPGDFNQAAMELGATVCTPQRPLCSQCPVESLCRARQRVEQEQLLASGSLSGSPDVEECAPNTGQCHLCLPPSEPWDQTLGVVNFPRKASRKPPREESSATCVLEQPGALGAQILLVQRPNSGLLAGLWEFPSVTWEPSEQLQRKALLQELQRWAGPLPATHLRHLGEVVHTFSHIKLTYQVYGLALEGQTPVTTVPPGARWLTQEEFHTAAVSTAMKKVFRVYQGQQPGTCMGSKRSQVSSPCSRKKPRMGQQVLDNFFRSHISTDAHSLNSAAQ
Description: Inhibition of MUTYH by quantifying inhibition of MUTYH-mediated cleavage and dissociation of quenched duplex DNA oligonucleotides, measured as fluorescence at 594 nm. To generate a functional strand incision and increase turn-over this assay is coupled to APE1.

N-glycosylase/DNA lyase (Homo sapiens), sequence (O15527 whole entry): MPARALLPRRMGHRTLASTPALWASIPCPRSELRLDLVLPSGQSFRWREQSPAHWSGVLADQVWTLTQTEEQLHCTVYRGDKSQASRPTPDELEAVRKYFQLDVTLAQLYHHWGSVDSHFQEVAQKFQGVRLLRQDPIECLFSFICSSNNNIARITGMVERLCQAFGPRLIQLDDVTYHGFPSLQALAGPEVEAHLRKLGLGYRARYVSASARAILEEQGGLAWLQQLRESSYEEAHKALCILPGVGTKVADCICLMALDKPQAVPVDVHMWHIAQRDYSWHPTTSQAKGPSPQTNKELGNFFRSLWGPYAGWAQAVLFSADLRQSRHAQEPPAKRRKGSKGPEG
Endonuclease 8-like 1 (Homo sapiens), sequence (Q96FI4 whole entry): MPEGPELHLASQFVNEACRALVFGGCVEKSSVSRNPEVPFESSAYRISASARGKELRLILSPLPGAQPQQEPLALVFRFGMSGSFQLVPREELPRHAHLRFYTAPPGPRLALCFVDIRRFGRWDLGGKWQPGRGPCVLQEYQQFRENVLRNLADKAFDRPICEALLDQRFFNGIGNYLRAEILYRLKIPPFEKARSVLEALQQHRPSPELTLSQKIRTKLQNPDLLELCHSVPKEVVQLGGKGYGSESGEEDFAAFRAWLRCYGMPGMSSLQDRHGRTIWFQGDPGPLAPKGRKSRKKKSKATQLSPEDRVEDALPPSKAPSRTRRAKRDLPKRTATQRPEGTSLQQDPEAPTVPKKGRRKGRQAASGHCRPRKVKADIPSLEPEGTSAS
G/T mismatch-specific thymine DNA glycosylase (Homo sapiens), sequence (Q13569 whole entry): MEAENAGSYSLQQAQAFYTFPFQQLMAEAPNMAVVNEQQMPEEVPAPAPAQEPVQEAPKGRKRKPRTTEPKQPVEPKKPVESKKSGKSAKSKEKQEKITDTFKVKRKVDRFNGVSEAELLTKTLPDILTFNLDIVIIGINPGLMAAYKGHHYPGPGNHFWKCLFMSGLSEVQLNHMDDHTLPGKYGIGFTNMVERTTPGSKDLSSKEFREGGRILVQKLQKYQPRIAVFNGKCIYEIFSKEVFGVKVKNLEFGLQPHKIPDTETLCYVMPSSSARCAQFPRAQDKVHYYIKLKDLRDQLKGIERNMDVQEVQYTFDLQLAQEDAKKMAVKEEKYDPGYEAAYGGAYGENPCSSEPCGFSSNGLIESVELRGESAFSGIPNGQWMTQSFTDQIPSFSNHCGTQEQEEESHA

One may read the inhibition as the relative decrease from the control value, in per cent. Turning to `COC(c1ccccc1)(c1ccccc1)[C@H](Oc1nc(C)cc(C)n1)C(=O)O`, the inhibition is 10.8% in assay [1]; 9.14% in assay [2]; 4.85% in [3]; 14.5% in assay [4]; -3.28% in assay [5]; 1.14% in [6]. Moreover, the values for the inhibition in assay [7], in [8] and in assay [9] were -5.94%, 6.32% and 23.3%, respectively.

Consider `CNc1nc(Nc2ccccc2)nc(OC(C(F)(F)F)C(F)(F)F)n1`, for which the inhibition in assay [1] is 1.69%; in [2], 2.83%; in [3], -9.6%; in assay [4], 4.54%; in assay [5], 2.08%; in assay [6], -3.77%. Moreover, the results for the inhibition in assay [7], in [8] and in assay [9] were 1.86%, 19.6% and -4.15%, respectively.

Take `CN(C(=O)/C=C/c1ccoc1)[C@@H]1CC[C@@]2(O)[C@H]3Cc4ccc(O)c5c4[C@@]2(CCN3CC2CC2)[C@H]1O5`: the inhibition in [1] was 1.76%; in [2], 14.2%; in assay [3] it was 5.81%; in [4] it was 13.5%; in [5], -7.79%; in assay [6], -1.76%. Besides, the inhibition was -6.84% in assay [7], 1.92% in assay [8] and 8.72% in [9].

For the compound H-RPPGFSPFR-OH, the inhibition in assay [1] is -1.37%; in [2], 4.01%; in assay [3], 15.2%; in assay [4], 26.9%; in assay [5], 5.92%; in assay [6], -0.678%. Moreover, the inhibition worked out at 2.31% in assay [7], 1.39% in [8] and 29% in [9].

On to `CC[S+]([O-])c1nc(-c2cccc(OCc3ccccc3)c2)cc(C(F)(F)F)n1` (stereo unspecified), for which the inhibition was 10.8% in [1]; 5.43% in assay [2]; -6.11% in assay [3]; 4.54% in assay [4]; 4.67% in assay [5]; 6.41% in assay [6]. Further, the inhibition is -7.73% in [7], -3.94% in assay [8] and -4.2% in assay [9].

Turning to `C[C@@H](OC[C@@]1(c2ccccc2)CC[C@]2(CCC(=O)N2)CN1)c1cc(C(F)(F)F)cc(C(F)(F)F)c1`, the inhibition is 6.75% in assay [1]; -1.98% in [2]; -7.57% in assay [3]; 9.1% in assay [4]; -1.58% in assay [5]; -0.784% in assay [6]. For the same compound, the values for the inhibition in [7], in assay [8] and in assay [9] were -7.13%, -6.14% and 10.9%, respectively.

Take `NCCc1ccc(O)c(O)c1`: the inhibition was -3.23% in assay [1]; 2.32% in assay [2]; -0.746% in assay [3]; 8.49% in assay [4]; -4.83% in assay [5]; -1.68% in [6]. The results for the inhibition in assay [7], in [8] and in assay [9] were -7.47%, 21% and 17.9%, respectively.

On to `CCCCCCCC/C=C\CCCCCCCC(N)=O`, for which the inhibition in [1] was 2.51%; in assay [2], 12.4%; in assay [3], 17.3%; in assay [4], 12.1%; in [5], -2.07%; in assay [6], 4.44%. Further, the inhibition was -8.52% in assay [7], 2.66% in [8] and 15.9% in assay [9].

Take `CC(C)(C(=O)O)c1ccc(C(O)CCCN2CCC(C(O)(c3ccccc3)c3ccccc3)CC2)cc1` (stereo unspecified): the inhibition was 8% in assay [1]; -7.32% in assay [2]; -4.6% in assay [3]; 8.16% in [4]; -3.57% in assay [5]; -9.14% in assay [6]. In addition, the inhibition was -8.82% in assay [7], 2.66% in [8] and -0.107% in assay [9].

The values above are taken from ChEMBL document CHEMBL5665443, “Enzyme Inhibitor Single Concentration assay results for EUbOPEN Chemogenomics Library” (2024).
